The values that follow come from ChEMBL document CHEMBL1649419, “Design and synthesis of pyrimidinone and pyrimidinedione inhibitors of dipeptidyl peptidase IV” (J Med Chem, 2011).

The nature of data set [1]: Volume of distribution at steady state in dog at 0.90 mg/kg, iv and 2.7 mg/kg, po. It counts as ADME, organism-based, Canis lupus familiaris. As to conditions: in vivo, 0.9 mg/kg, read-out: Vdss.
A short description of data set [2]: Half life in dog at 0.90 mg/kg, iv. Also on record: dose 0.9 mg/kg, route intravenous. It counts as ADME, organism-based, Canis lupus familiaris. The settings on record: in vivo, 0.9 mg/kg.
Data set [3] is described as follows: Half life in dog at 2.7 mg/kg, po. The settings on record: in vivo. It counts as ADME, organism-based, Canis lupus familiaris. Also noted: dose 2.7 mg/kg, route oral.
Data set [4] can be described thus: AUC in dog at 2.7 mg/kg, po. As to conditions: plasma. It counts as ADME, organism-based, Canis lupus familiaris. Also on record: dose 2.7 mg/kg, route oral.
For data set [5], the system named is Macaca fascicularis. Nature of the data set: Half life in monkey at 0.93 mg/kg, iv. The settings on record: cynomolgus monkey, in vivo.
The nature of data set [6]: Oral bioavailability in dog at 2.7 mg/kg, po. It counts as ADME, organism-based, Canis lupus familiaris. As to conditions: in vivo.
The nature of data set [7]: Clearance in dog at 0.90 mg/kg, iv and 2.7 mg/kg, po. It counts as ADME, organism-based, Canis lupus familiaris. The settings on record: in vivo, 0.9 mg/kg.
Data set [8] concerns Macaca fascicularis. The data set is described as follows: Half life in monkey at 4.6 mg/kg, po. As to conditions: cynomolgus monkey, in vivo.
Data set [9] in a line: AUC in monkey at 4.6 mg/kg, po. As to conditions: cynomolgus monkey, plasma.
The subject of data set [10] is Macaca fascicularis. Nature of the data set: Oral bioavailability in monkey at 4.6 mg/kg, po. As to conditions: cynomolgus monkey, in vivo.
Data set [11] concerns Macaca fascicularis. The data set is described as follows: Volume of distribution at steady state in monkey at 0.93 mg/kg, iv and 4.6 mg/kg, po. The settings on record: cynomolgus monkey, in vivo, read-out: Vdss.
The subject of data set [12] is Macaca fascicularis. Nature of the data set: in vivo. As to conditions: cynomolgus monkey, iv, 0.93 mg/kg.

As for `Cn1c(=O)cc(N2CCC[C@@H](N)C2)n(Cc2cc(F)ccc2C#N)c1=O.O=C(O)C(F)(F)F`, the Vd in data set [1] worked out at 4.4 L/kg. The half-life in data set [2] was 1.5 h; in [3], 4.8 h; in [5] it was 5.6 h. The same compound came in with an AUC in [4] of 2200 ng·h/mL. The bioavailability in data set [6] was determined as 90%. Besides, the clearance in data set [7] was 18 mL/min/kg.
For `Cl.Cn1c(=O)cc(N2CCC[C@@H](N)C2)n(Cc2cc(F)ccc2C#N)c1=O`, the half-life in [8] is 6.2 h. For the same compound, in [9], the AUC was found to be 8000 ng·h/mL. For the same compound, the bioavailability in data set [10] is 105%. In data set [11], the Vd was found to be 3.3 L/kg. In addition, the clearance in data set [12] is 10 mL/min/kg.

A word on the half-life: it is the time needed for the level to fall by half in the phase considered. In general, AUC refers to concentration integrated over time.
